# Results reported in patent US20260327242A1, “Platform and Scaffold for FAP Targeting Agents” (Erasmus University Medical Center Rotterdam, priority 2022, published 2026).
# Assays:
# [1] = vis-à-vis FAPI-04; cited from earlier work
# FAP [2] = conditions: cited from earlier work
# FAP [3] = biological target: T1, FAP (Homo sapiens, UniProt Q12884); assay: Competitive binding assay against [^111In]In-FAPI-46 in HT-1080.hFAP cells; conditions: 37° C., 1 h
# T1 construct: expressed in transfected cells; host or cells: HT-1080.hFAP
# T1 sequence (Q12884 1-760): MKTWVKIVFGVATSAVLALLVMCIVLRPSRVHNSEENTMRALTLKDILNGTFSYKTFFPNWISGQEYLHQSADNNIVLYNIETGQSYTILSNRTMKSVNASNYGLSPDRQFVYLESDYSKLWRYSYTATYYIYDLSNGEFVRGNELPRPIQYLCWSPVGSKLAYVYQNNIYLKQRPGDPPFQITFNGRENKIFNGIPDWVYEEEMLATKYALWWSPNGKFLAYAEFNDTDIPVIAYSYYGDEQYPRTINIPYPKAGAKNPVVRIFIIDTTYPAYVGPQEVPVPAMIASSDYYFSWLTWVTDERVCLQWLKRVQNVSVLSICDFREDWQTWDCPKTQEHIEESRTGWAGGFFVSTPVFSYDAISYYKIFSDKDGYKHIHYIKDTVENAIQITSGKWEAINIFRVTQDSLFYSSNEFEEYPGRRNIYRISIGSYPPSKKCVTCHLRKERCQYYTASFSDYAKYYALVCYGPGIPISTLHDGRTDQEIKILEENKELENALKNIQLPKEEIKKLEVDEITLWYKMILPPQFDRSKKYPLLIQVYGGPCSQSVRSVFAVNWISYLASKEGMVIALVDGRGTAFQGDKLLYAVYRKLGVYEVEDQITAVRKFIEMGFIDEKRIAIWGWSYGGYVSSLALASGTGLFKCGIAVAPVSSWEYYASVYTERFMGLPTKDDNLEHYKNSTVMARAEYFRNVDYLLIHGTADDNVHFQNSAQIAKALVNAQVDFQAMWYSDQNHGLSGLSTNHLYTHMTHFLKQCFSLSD
# Procedure: The U-87 MG glioblastoma was cultured at 37° C. and 5% CO2 in Dulbecco's Modified Eagle Medium (DMEM) supplemented with 10% (v/v) fetal calf serum. HT-1080.hFAP cells were kept in culture in DMEM medium supplemented with fetal bovine serum (10%, FBS) and antibiotic antimycotic (1%, AA) at 37° C. and 5% CO2. For passaging, cells were detached using Trypsin-EDTA 0.05% when reaching 90% confluence and re-seeded at a dilution of 1:4.
# Competition binding experiments were conducted by incubation of the [^111In]In-FAPI-46 radioligand with increasing concentrations of eFAP compound in HT-1080.hFAP cells at 37° C. for 1 h. Cells were then washed three times with binding buffer and lysed. The cell-associated radioactivity was measured in a γ-counter. The IC50 values were calculated by fitting the data by non-linear regression using GraphPad Prism.
# Results with FABI-46 obtained in the same assay is included for comparison.
# U-87 tumor = assay: Near-infrared fluorescence imaging of U-87 tumor bearing mice; assay type: in vivo, mouse; conditions: 2 nmol i.v., imaging 1 h, excised tumors 2.5 h
# Description: Six-week-old male Balb/c nu/nu-specific and opportunistic pathogen-tree (SOPF) mice were housed in individually ventilated cages, with 4 mice per cage. Upon arrival, mice were acclimated for 1 week, with access to food and water ad libitum. Mice were subcutaneously inoculated on the right shoulder with U-87 or HT-1080.hFAP cells (1×10^6 cells). Xenografts were allowed to grow until they reached an appropriate size at the start of the studies. All animal experiments were approved by the Animal Welfare Committee of the Erasmus MC and were conducted in agreement with institutional guidelines (license number: AVD101002017867).
# Evaluation of targeting performance of eFAP-17 in near-infrared fluorescence imaging of U-87 tumor bearing mice after intravenous injection of 2 nmol of the probe are given in FIG. 9 showing A) NIRF imaging of U-87 tumor bearing mice at 1 h after intravenous injection of 2 nmol of CW800 (left, negative control) or eFAP-17 (right) and B) image of excised tumors 2.5 h post administration of CW800 (left) or eFAP-17 (right).
# mouse FAP (mFAP) = biological target: T2, mouse FAP (mFAP) (Mus musculus, UniProt P97321); assay: In vitro inhibition assay on mouse FAP (Z-GP-AMC substrate); assay type: biochemical; conditions: 20 μM Z-GP-AMC, 20 nM FAP, pH 7.4, room temperature
# T2 sequence (P97321 26-761 limits assumed): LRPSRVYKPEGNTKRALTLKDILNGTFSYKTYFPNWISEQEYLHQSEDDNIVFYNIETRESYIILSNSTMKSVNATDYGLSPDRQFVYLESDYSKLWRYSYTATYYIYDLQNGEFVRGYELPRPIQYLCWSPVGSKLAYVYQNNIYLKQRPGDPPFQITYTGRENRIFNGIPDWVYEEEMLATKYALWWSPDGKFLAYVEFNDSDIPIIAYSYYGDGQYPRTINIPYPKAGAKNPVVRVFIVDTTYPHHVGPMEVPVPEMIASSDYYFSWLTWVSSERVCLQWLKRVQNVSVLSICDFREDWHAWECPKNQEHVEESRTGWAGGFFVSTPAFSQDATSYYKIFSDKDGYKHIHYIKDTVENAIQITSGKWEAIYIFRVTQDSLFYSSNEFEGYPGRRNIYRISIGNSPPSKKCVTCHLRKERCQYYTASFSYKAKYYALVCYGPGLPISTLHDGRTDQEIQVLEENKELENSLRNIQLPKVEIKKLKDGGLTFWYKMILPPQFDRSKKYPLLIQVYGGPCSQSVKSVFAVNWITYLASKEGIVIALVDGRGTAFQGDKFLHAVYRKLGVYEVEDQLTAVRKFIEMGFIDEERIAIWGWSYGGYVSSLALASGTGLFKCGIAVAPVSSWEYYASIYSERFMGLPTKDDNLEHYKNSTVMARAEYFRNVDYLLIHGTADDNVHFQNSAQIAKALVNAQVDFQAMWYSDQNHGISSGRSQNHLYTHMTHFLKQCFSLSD
# Procedure: (§1) Enzymatic activity of human FAP (hFAP) and mouse FAP (mFAP) on the Z-GP-AMC substrate was measured at room temperature on a Hidex microplate reader by monitoring the fluorescence at an excitation wavelength of 360 nm and an emission wavelength of 465 nm. The reaction mixture contained 20 μM substrate, 20 nM FAP, assay buffer (50 mM Tris, 100 mM NaCl, 1 mM EDTA, pH 7.4) and tested compound (serial dilution from 10-6 to 10^−12) in a total volume of 50 μL.
# Results with FAPI-46 obtained in the same assay is included for comparison.
# human FAP (hFAP) = biological target: T3, human FAP (hFAP) (Homo sapiens, UniProt Q12884); assay: In vitro inhibition assay on human FAP (Z-GP-AMC substrate); assay type: biochemical; conditions: 20 μM Z-GP-AMC, 20 nM FAP, pH 7.4, room temperature
# T3 sequence (Q12884 26-760 limits assumed): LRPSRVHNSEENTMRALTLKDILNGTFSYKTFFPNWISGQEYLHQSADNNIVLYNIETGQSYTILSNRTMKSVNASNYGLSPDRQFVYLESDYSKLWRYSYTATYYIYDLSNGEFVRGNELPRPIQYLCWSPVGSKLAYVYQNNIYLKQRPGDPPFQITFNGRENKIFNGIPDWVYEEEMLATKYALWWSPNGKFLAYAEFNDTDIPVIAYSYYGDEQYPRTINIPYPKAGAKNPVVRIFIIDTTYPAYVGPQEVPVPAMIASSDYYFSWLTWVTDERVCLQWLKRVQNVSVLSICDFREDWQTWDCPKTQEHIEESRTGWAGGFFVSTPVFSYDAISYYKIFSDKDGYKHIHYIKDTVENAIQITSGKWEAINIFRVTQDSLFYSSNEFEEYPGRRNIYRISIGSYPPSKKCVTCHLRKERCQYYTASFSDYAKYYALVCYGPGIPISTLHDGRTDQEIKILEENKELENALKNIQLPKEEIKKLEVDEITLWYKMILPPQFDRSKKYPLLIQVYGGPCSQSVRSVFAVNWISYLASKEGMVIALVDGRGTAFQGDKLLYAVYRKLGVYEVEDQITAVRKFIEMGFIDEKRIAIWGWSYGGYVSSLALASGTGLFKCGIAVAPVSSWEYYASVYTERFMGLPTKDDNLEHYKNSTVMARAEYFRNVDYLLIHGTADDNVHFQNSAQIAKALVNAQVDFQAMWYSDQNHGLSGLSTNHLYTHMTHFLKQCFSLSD
# Procedure: as §1
# U-87 cells = assay: Cytotoxicity assay in FAP+ U-87 cells (resazurin); assay type: cell-based; conditions: Homo sapiens, U-87 MG; read-out: cell viability
# Procedure: In 96-well plates, U-87 cells (3×10^3) were seeded in each well and incubated at 37° C. and 5% CO2 for 24 h. The medium was removed and the wells were washed once with PBS. The cytotoxic drug (positive control) or the eFAP conjugate containing the drug were prepared at various concentrations (i.e., 1, 10, 100, 1000 nM) in DMEM culture medium, supplemented with 2 mM L-glutamine, 10% FBS, 50 units/mL penicillin, and 50 μg/mL streptomycin. Medium was used as a negative control. Cells were incubated with 100 μL of the tested compounds for 1, 24, 48, and 72 h. After incubation, medium was removed and each well was washed once with PBS. Next, 100 μL of 10% resazurin solution in culture medium was added to each well and incubated for 2.5 h. Fluorescence measurements were carried out using a microplate reader at 544 nm excitation and 590 nm emission.
compound,measurement,setting,value
CN(CCCN1CCN(C(=O)CN2CCN(CC(=O)O)CCN(CC(=O)O)CCN(CC(=O)O)CC2)CC1)c1ccc2nccc(C(=O)NCC(=O)N3CC(F)(F)C[C@H]3C#N)c2c1 [FAPI-46],tumor-to-organ ratios (in words),[1],improved tumor-to-organ ratios
N#C[C@@H]1CC(F)(F)CN1C(=O)CNC(=O)c1ccnc2ccccc12 [UAMC-1110],affinity to FAP (in words),FAP [2],nanomolar affinity to FAP
"N#C[C@@H]1CC(F)(F)CN1C(=O)CNC(=O)c1ccnc2c(OCCCNC(=O)CN3CCN(CC(=O)O)CCN(CC(=O)O)CCN(CC(=O)O)CC3)cccc12 [eFAP-6, (S)-2,2′,2″-(10-(2-((3-((4-((2-(2-Cyano-4,4-difluoropyrrolidin-1-yl)-2-oxoethyl)carbamoyl)quinolin-8-yl)oxy)propyl)amino)-2-oxoethyl)-1,4,7,10-tetraazacyclododecane-1,4,7-triyl)triacetic acid]",binding affinity for FAP (in words),FAP [3],low nano-molar binding affinity for FAP
"CC1(C)C(/C=C/C2=C(Oc3ccc(S(=O)(=O)O)cc3)C(=C/C=C3/N(CCCCCC(=O)NCCCOc4cccc5c(C(=O)NCC(=O)N6CC(F)(F)C[C@H]6C#N)ccnc45)c4ccc(S(=O)(=O)O)cc4C3(C)C)/CCC2)=[N+](CCCCS(=O)(=O)[O-])c2ccc(S(=O)(=O)O)cc21 [eFAP-17, 4-(2-((E)-2-((E)-3-(2-((E)-1-(6-((3-((4-((2-((S)-2-Cyano-4,4-difluoropyrrolidin-1-yl)-2-oxoethyl)carbamoyl)quinolin-8-yl)oxy)propyl)amino)-6-oxohexyl)-3,3-dimethyl-5-sulfoindolin-2-ylidene)ethylidene)-2-(4-sulfophenoxy)cyclohex-1-en-1-yl)vinyl)-3,3-dimethyl-5-sulfo-3H-indol-1-ium-1-yl)butane-1-sulfonate]","accumulation in healthy tissues, NIRF imaging (in words)",U-87 tumor,low accumulation in healthy tissues
same,"tumor uptake, NIRF imaging (in words)",U-87 tumor,high uptake in the FAP overexpressing tumor
same,IC50,mouse FAP (mFAP),5 ± 0.2 nM
"COc1cc2cc(c1Cl)N(C)C(=O)CC(OC(=O)C(C)N(C)C(=O)CCSSCCC(=O)NCCCOc1cccc3c(C(=O)NCC(=O)N4CC(F)(F)CC4C#N)ccnc13)C1(C)OC1C(C)C1CC(O)(NC(=O)O1)C(OC)C=CC=C(C)C2 [eFAP-18, (1^4S,1^6S,3^2S,3^3S,2R,4S,10E,12E,14R)-8^6-chloro-1^4-hydroxy-8^5,14-dimethoxy-3^3,2,7,10-tetramethyl-1^2,6-dioxo-7-aza-1(6,4)-oxazinana-3(2,3)-oxirana-8(1,3)-benzenacyclotetradecaphane-10,12-dien-4-yl N-(3-((3-((3-((4-((2-((S)-2-cyano-4,4-difluoropyrrolidin-1-yl)-2-oxoethyl)carbamoyl)quinolin-8-yl)oxy)propyl)amino)-3-oxopropyl)disulfaneyl)propanoyl)-N-methyl-L-alaninate]",IC50,mouse FAP (mFAP),2 ± 0.1 nM
same,IC50,human FAP (hFAP),2.6 ± 0.8 nM
same,viability at 1 µM,U-87 cells,~25%
